Measured values: PMC9323266, “Competitive Metabolism of Polycyclic Aromatic Hydrocarbons (PAHs): An Assessment Using In Vitro Metabolism and Physiologically Based Pharmacokinetic (PBPK) Modeling” (International Journal of Environmental Research and Public …, 2022)
Where two headings read alike, the source gives them in different places.

Assays:
human hepatic microsomes = assay: In vitro metabolism (substrate disappearance) in pooled human liver microsomes; assay type: in vitro ADME; settings: human hepatic microsomes
Method: (§1) Pooled human liver microsome samples were obtained from Sekisui Xenotech, LLC (Kansas City, KS, USA). Pooled samples contained contributions from 200 individuals having equal male:female ratio and predominantly from humans between 19 and 78 years of age (3 individuals 10–18 years old).
(§2) Briefly, within 500 µL total volume, reactions consisted of MgCl2 (3 mM), microsomes (2.0 mg/mL), 0.1 M phosphate buffer (pH 7.4), and excess NADPH (1.5 mM). Control samples using inactivated microsomes absent of NADPH were also included. Microsomes were preactivated via 37 °C incubation on a thermal shaker for 5 min. […] Samples were incubated at 37 °C for 0–30 min or 0–60 min, respectively. Reactions were quenched by adding 500 µL 0.9 M H2SO4, and samples were immediately placed on ice until extraction. A standard curve was prepared (0.015 µM–25.0 µM) in inactivated microsomes. An internal standard was added to each quenched sample (DBC for BaP kinetics reactions and BaP for DBC kinetics reactions). Experiments were performed in triplicate.
(§3) Analytes were extracted from samples with liquid–liquid extraction and measured using high-performance liquid chromatography (HPLC). First, BaP, DBC, or retene was added as an internal standard depending on incubations conditions being tested. Samples were extracted using three 500 µL volumes of ethyl acetate. Extracts were dried under a gentle stream of nitrogen and resolubilized in 500 µL methanol. Analytes were quantified by reverse phase HPLC using an Agilent 1260 Infinity HPLC system equipped with an Agilent G4290B variable wavelength detector and an Agilent G1321B SPECTRA fluorescence detector (Santa Clara, CA, USA). Sample (10 µL) was injected into an Ascentis 25 cm × 4.6 mm, 5 µm C18 column (Sigma-Aldrich, St. Louis, MO, USA). A gradient of water and acetonitrile from 55:45 to 0:100 was employed from 0 to 10 min and then was held at 100% acetonitrile until 22 min at a flow rate of 0.95 mL/min. […] Excitation and emission wavelengths were 230 nm and 430 nm, respectively. […] Quantification was accomplished using a linear regression fit to an external calibration curve prepared in tandem with samples.
(§4) As with previous in vitro PAH metabolism studies conducted in our lab, metabolism rates were calculated based on substrate disappearance. […] Confidence intervals of metabolism rates were calculated using a nonparametric bootstrap, where metabolism rates were resampled with replacement at each concentration, and the regression was repeated on the resampled dataset (n = 1000).
(§5) These two models include a Michaelis–Menten clearance equation for non-saturable high-capacity/low-affinity enzymes (Equation (2)) and a double Michaelis–Menten equation for saturable high-capacity/low-affinity enzymes (Equation (3)). Models were optimized using a maximum likelihood objective. The Bayesian information criterion (BIC) was used to judge the best-fit model for evaluating metabolism. For Michaelis–Menten kinetics, intrinsic clearance values (Clint) of the first order phase were estimated by dividing the Vmax by the respective Km. Fit parameter confidence intervals were calculated using a parametric bootstrap (n = 1000), where each best fit model was re-optimized to sampled metabolic rates assuming a normal distribution at each […]:(1) dS/dt=Vmax×S/Km+S (2) dS/dt=Vmax1×S/Km1+S+Clint2×S (3) dS/dt=Vmax1×S/Km1+S+Vmax2×S/Km2+S

[1] = system: benzo[a]pyrene (BaP) metabolism in human hepatic microsomes; assay: Competitive inhibition of BaP metabolism in human hepatic microsomes; assay type: in vitro ADME
Method: (§6) Competitive inhibition of PAH metabolism was measured using conditions described above. […] Each experimental condition (e.g., substrate, concentration, time point, etc.) was conducted in triplicate.
(§7) Analytes were extracted from samples with liquid–liquid extraction and measured using high-performance liquid chromatography (HPLC). First, BaP, DBC, or retene was added as an internal standard depending on incubations conditions being tested. Samples were extracted using three 500 µL volumes of ethyl acetate. Extracts were dried under a gentle stream of nitrogen and resolubilized in 500 µL methanol. Analytes were quantified by reverse phase HPLC using an Agilent 1260 Infinity HPLC system equipped with an Agilent G4290B variable wavelength detector and an Agilent G1321B SPECTRA fluorescence detector (Santa Clara, CA, USA). […] Quantification was accomplished using a linear regression fit to an external calibration curve prepared in tandem with samples.
as §4, with “1000). […]” for “1000).”

[2] = parameters: method as in PMID 34933053; settings: cited from earlier work
[3] = cited from earlier work; for Carcinogenic (classifying agencies): classified as Suspected, Possible, Probable, or Confirmed carcinogen in animal models or humans by EPA, IARC or ACGIH
[4] = In vitro metabolism (substrate disappearance) in pooled human liver microsomes; assay type: in vitro ADME; settings: both sexes; for microsomal CLint: human, microsomes, pH 7.4, human hepatic microsomes
Method: as §1, §2, §3, §4, §5

[5] = system: DBC metabolism in human hepatic microsomes; assay: Competitive inhibition of DBC metabolism in human hepatic microsomes; assay type: in vitro ADME; settings: both sexes, human, pH 7.4
Method: as §6, §7
as §4, with “1000). […]” for “1000).”

[6] = target: dibenzo[def,p]chrysene (DBC) metabolism in human hepatic microsomes; assay: as above; assay type: in vitro ADME; settings: substrate DBC 0.17 µM initial, human hepatic microsomes, apparent Ki, Equation (4); read-out: Inhibition constant (Ki) of competitive inhibitor to DBC metabolism
Method: as §6, §7
as §4, with “1000). […]” for “1000).”

CYP1A1 and CYP2C19 = settings: Supersomes expressing human CYPs; cited from earlier work
CYP3A4 = settings: Supersomes expressing human CYPs; cited from earlier work
[7] = Michaelis-Menten clearance model fit, high-affinity/low-capacity enzyme

c1ccc2c(c1)cc1ccc3cccc4c5ccccc5c2c1c34 [DBC, dibenzo[def,p]chrysene]
Rates of metabolism, times slower than rates of BaP metabolism (human hepatic microsomes): 3–5 times
Vmax1 (human hepatic microsomes; [7]): 0.0009 nmol/min/mg Micro
Km (human hepatic microsomes; Michaelis-Menten clearance model fit, high-affinity/low-capacity enzyme, read-out: Km 1): 0.06 µM
Clint 1 (human hepatic microsomes; first order phase, Vmax divided by Km): 0.015 mL/min
Clint 2 (human hepatic microsomes; non-saturable low-affinity/high-capacity enzyme): 0.0017 mL/min
Inhibition of the rate of BaP metabolism ([1]; inhibitor ≥1 µM, 0.14 µM BaP initial substrate concentration): ≥ 48%
Ki ([1]; read-out: Inhibition constant (Ki) of competitive inhibitor to BaP metabolism, substrate BaP 0.14-0.18 µM initial, human hepatic microsomes, apparent Ki, Equation (4)): 440 nM
log Kow [2]: 7.71
Relative Potency Factor ([3]; cancer potency relative to BaP index compound): 30

c1ccc2ccccc2c1 [naphthalene]
Carcinogenic (classifying agencies) [3]: EPA, IARC, ACGIH

c1ccc2c(c1)cc1ccc3cccc4ccc2c1c34 [BaP, benzo[a]pyrene]
microsomal CLint ([4]; first order phase, Vmax divided by Km, read-out: Clint 1): 72 µL/min/mg
microsomal CLint ([4]; non-saturable low-affinity/high-capacity enzyme, read-out: Clint 2): 1.2 µL/min/mg
Km ([4]; pH 7.4, human hepatic microsomes, Michaelis-Menten clearance model fit, high-affinity/low-capacity enzyme, read-out: Km 1): 0.088 µM
Intrinsic clearance compared to that of DBC (human hepatic microsomes): nearly five-fold faster
Vmax1 (human hepatic microsomes; [7]): 0.0063 nmol/min/mg Micro
inhibition at 1 µM [5]: 62%
Ki [6]: 61 nM
log Kow [2]: 6.13
Share of BaP-7,8-diol produced by CYP1A1 and CYP2C19 (CYP1A1 and CYP2C19): 96%
Share of 3-hydroxy-BaP produced by CYP3A4 (CYP3A4): 53%

c1ccc2cc3c(ccc4ccccc43)cc2c1 [benzo(a)anthracene]
Carcinogenic (classifying agencies) [3]: EPA, IARC, ACGIH

c1ccc2c(c1)ccc1c3ccccc3ccc21 [chrysene]
Carcinogenic (classifying agencies) [3]: EPA, ACGIH
